# From patent publication US20250277012A1 (Protagonist Therapeutics, Inc., priority 2021, published 2025)
# Positions of bridges follow the written chain, without caps; N, C: chain ends. Non-standard residues stand in square brackets, D forms with d. Residues, ends and D or L forms follow the SMILES beside them. Groups on a side chain read outwards from the residue. *: point of attachment. X1 = C[N+](C)(CCNC(=O)CCCCCCCCCCCCCCCCC(=O)O)CC(=O)*; X5 = CCCCCCCCCCCCCCCC(=O)NCC[N+](C)(C)CC(=O)*; C18 diacid = O=C(O)CCCCCCCCCCCCCCCCC(=O)*; Dip = N[C@H](C(=O)O)C(c1ccccc1)c1ccccc1; Pro(3R-OH) = O=C(O)[C@H]1NCC[C@H]1O; Palmitoyl = CCCCCCCCCCCCCCCC(=O)*; NMeF = CN[C@@H](Cc1ccccc1)C(=O)O; β3hF = N[C@H](CC(=O)O)Cc1ccccc1; NMeK = CN[C@@H](CCCCN)C(=O)O; Isovaleryl = CC(C)CC(=O)*; NMeC = CN[C@@H](CS)C(=O)O; hCys = N[C@@H](CCS)C(=O)O; hSer = N[C@@H](CCO)C(=O)O; Dap = NC[C@H](N)C(=O)O; AEEA = NCCOCCOCC(=O)O; Ahx = NCCCCCC(=O)O
# Target: T1, ferroportin (Homo sapiens, UniProt Q9NP59)
# T1 sequence (Q9NP59 1-571): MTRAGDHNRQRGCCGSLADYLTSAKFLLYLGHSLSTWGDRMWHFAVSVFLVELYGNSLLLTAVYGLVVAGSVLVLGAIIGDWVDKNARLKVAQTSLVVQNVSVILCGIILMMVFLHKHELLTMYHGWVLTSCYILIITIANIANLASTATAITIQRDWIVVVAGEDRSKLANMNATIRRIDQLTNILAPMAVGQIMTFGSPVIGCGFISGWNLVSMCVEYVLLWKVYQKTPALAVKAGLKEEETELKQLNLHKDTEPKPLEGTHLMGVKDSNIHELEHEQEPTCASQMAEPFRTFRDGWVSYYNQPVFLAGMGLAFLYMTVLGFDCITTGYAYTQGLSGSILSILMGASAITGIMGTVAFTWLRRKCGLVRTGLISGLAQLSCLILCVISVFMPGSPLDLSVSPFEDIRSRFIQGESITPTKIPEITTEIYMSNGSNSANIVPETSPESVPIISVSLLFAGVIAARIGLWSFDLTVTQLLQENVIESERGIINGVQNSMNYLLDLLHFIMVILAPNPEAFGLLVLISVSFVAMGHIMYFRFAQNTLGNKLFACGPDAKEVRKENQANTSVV
# Test: T47D cell-based ferroportin internalization assay in presence of mouse serum albumin (MSA)
# Design: a human breast carcinoma adherent cell line which endogenously expresses ferroportin; host or cells: T47D
# Details: T47D internalization assay in presence of mouse serum albumin (MSA); Table 6E
# Experimental: The potency of the peptides in causing ferroportin internalization was evaluated in a T47D cell-based assay. […] In this internalization assay, the potency of the test peptides was evaluated in presence of serum albumin which is the main protein component in the blood. T47D cells were maintained in RPMI media (containing required amount of fetal bovine serum) and regularly sub-cultured. In preparation for the assay, the cells were seeded in 96-well plates at a density of 80-100 k cells per well in 100 ul volume and allowed to rest overnight. […] Sigma, A3139). The test peptide dilution series were allowed to incubate at room temperature for 30 min. Then the media was aspirated from the 96-well cell plate and test peptide dilution series were added. […] The AF647-conjugated detection peptide was previously verified to bind to ferroportin and cause its internalization. The cells were washed again after a 2 hr incubation in preparation for flow cytometry analysis. The Median Fluorescence Intensity (MFI) of the AF647-positive population was measured (after removing dead cells and non-singlets from the analysis). The MFI values were used to generate a dose-response curve and obtain IC50 potencies for the test peptides.
row,IC50 [nM],Compound
1,10 to 100,COC(=O)CC[C@H](NC(=O)CC(C)C)C(=O)N[C@H](C(=O)N[C@@H](Cc1c[nH]cn1)C(=O)N[C@H](C(=O)N1CCC[C@H]1C(=O)N[C@H]1CSSC[C@@H](C(=O)N(C)[C@@H](CCCCNC(=O)COCCOCCNC(=O)COCCOCCNC(=O)C[N+](C)(C)CCNC(=O)CCCCCCCCCCCCCCCCC(=O)O)C(=O)N[C@H](CC(=O)N[C@H](CCCCN)C(N)=O)Cc2ccccc2)NC1=O)C(c1ccccc1)c1ccccc1)[C@@H](C)O [compound 231] (Isovaleryl-E(OMe)TH[Dip]PCC[NMeK]([AEEA-AEEA-X1])[β3hF][dK]-NH2; disulfide 6-7)
2,100 to 500,CC(C)CC(=O)N[C@@H](CN)C(=O)N[C@H](C(=O)N[C@@H](Cc1c[nH]cn1)C(=O)N[C@H](C(=O)N1CCC[C@H]1C(=O)N[C@H]1CSSC[C@@H](C(=O)N(C)[C@@H](CCCCNC(=O)COCCOCCNC(=O)COCCOCCNC(=O)[C@H](CN)NC(=O)CCCCCCCCCCCCCCCCC(=O)O)C(=O)N[C@H](CC(=O)N[C@H](CCCCN)C(N)=O)Cc2ccccc2)NC1=O)C(c1ccccc1)c1ccccc1)[C@@H](C)O [compound 289] (Isovaleryl-[Dap]TH[Dip]PCC[NMeK]([AEEA-AEEA-Dap-C18 diacid])[β3hF][dK]-NH2; disulfide 6-7)

# Same assay, conditions: Table 6E; T47D internalization assay with MSA
row,IC50 [nM],Compound
1,1 to 10,CCCCCCCCCCCCCCCC(=O)NCCCCCC(=O)NCCCC[C@@H](C(=O)N[C@H](C(=O)N[C@H](CCCCN)C(N)=O)C(c1ccccc1)c1ccccc1)N(C)C(=O)[C@@H]1CSSC[C@H](NC(=O)[C@@H]2CCCN2C(=O)[C@@H](NC(=O)[C@H](Cc2cnc[nH]2)NC(=O)[C@@H](NC(=O)[C@H](CCO)NC(=O)CC(C)C)[C@@H](C)O)C(c2ccccc2)c2ccccc2)C(=O)N1 [compound 168] (Isovaleryl-[hSer]TH[Dip]PCC[NMeK]([Ahx-Palmitoyl])[Dip][dK]-NH2; disulfide 6-7)
2,1 to 10,CCCCCCCCCCCCCCCC(=O)NCC[N+](C)(C)CC(=O)NCCCC[C@@H](C(=O)N[C@H](C(N)=O)C(c1ccccc1)c1ccccc1)N(C)C(=O)[C@@H]1CSSC[C@H](NC(=O)[C@@H]2CCCN2C(=O)[C@@H](NC(=O)[C@H](Cc2cnc[nH]2)NC(=O)[C@@H]2[C@H](O)CCN2C(=O)[C@H](CCC(=O)O)NC(=O)CC(C)C)C(c2ccccc2)c2ccccc2)C(=O)N1 [compound 150] (Isovaleryl-E[Pro(3R-OH)]H[Dip]PCC[NMeK](X5)[Dip]-NH2; disulfide 6-7)
3,1 to 10,CCCCCCCCCCCCCCCC(=O)NCCCCCC(=O)NCCCC[C@@H](C(=O)N[C@H](C(=O)N[C@H](CCCCN)C(N)=O)C(c1ccccc1)c1ccccc1)N(C)C(=O)[C@@H]1CSSC[C@H](NC(=O)[C@@H]2CCCN2C(=O)[C@@H](NC(=O)[C@H](Cc2cnc[nH]2)NC(=O)[C@@H]2CCCN2C(=O)[C@H](CCC(=O)O)NC(=O)CC(C)C)C(c2ccccc2)c2ccccc2)C(=O)N1 [compound 171] (Isovaleryl-EPH[Dip]PCC[NMeK]([Ahx-Palmitoyl])[Dip][dK]-NH2; disulfide 6-7)

# Target: T1, ferroportin
# Test: FPN activity assay: ferroportin-GFP internalization/degradation in HEK293 cells
# Type: cell-based
# Design: expressed in transfected cells
# Details: ferroportin-GFP HEK293 cells, at least 18 hours; read-out: FPN IC50
# Experimental: Following internalization, the ferroporin protein is degraded.
# A retro inverse peptide is a peptide with a reversed sequence in all D amino acids. An example is that Hy-Glu-Thr-His-NH2 becomes Hy-DHis-DThr-DGlu-NH2. The EC50 of these reference compounds for ferroportin internalization/degradation was determined according to the FPN activity assay described above. These peptides served as control standards.
row,DC50 [nM],Compound
1,10 to 100,CCCCCCCCCCCCCCCC(=O)NCCCCCC(=O)NCCCC[C@H](NC(=O)C[C@H](Cc1ccccc1)NC(=O)[C@@H]1CCSSCC[C@H](NC(=O)CC(C)C)C(=O)N[C@@H]([C@@H](C)O)C(=O)N[C@@H](Cc2cnc[nH]2)C(=O)N[C@@H](C(c2ccccc2)c2ccccc2)C(=O)N2CCC[C@H]2C(=O)N[C@@H](C)C(=O)N[C@@H]([C@@H](C)CC)C(=O)N1)C(=O)N[C@H](CCCCN)C(N)=O [compound 111] (Isovaleryl-[hCys]TH[Dip]PAI[hCys][β3hF]K([Ahx-Palmitoyl])[dK]-NH2; disulfide 1-8)
2,10 to 100,CCCCCCCCCCCCCCCC(=O)NCCCCCC(=O)NCCCC[C@H](NC(=O)C[C@H](Cc1ccccc1)NC(=O)[C@@H](CCCCN)NC(=O)[C@@H](NC(=O)[C@@H]1CSSC[C@H](NC(=O)[C@@H](NC(=O)[C@H](Cc2c[nH]cn2)NC(=O)[C@@H](NC(=O)[C@H](CCC(=O)O)NC(=O)CC(C)C)[C@@H](C)O)C(c2ccccc2)c2ccccc2)C(=O)N1)[C@@H](C)CC)C(=O)N[C@H](CCCCN)C(N)=O [Compd 4] (Isovaleryl-ETH[Dip]CCI[dK][β3hF]K([Ahx-Palmitoyl])[dK]-NH2; disulfide 5-6)
3,10 to 100,CC(C)CC(=O)N[C@@H](CCC(=O)O)C(=O)N[C@H](C(=O)N[C@@H](Cc1c[nH]cn1)C(=O)N[C@H](C(=O)N1CCC[C@H]1C(=O)N[C@H]1CSSC[C@@H](C(=O)N[C@H](CCCCN)C(=O)N[C@H](CC(=O)N[C@@H](CCCCNC(=O)COCCOCCNC(=O)COCCOCCNC(=O)CCCCCNC(=O)CCCCCCCCCCCCCCCCC(=O)O)C(=O)N[C@H](CCCCN)C(N)=O)Cc2ccccc2)NC1=O)C(c1ccccc1)c1ccccc1)[C@@H](C)O [Compd 26] (Isovaleryl-ETH[Dip]PCC[dK][β3hF]K([AEEA-AEEA-Ahx-C18 diacid])[dK]-NH2; disulfide 6-7)
4,10 to 100,CCCCCCCCCCCCCCCC(=O)NCCCCCC(=O)NCCCC[C@H](NC(=O)C[C@H](Cc1ccccc1)NC(=O)[C@@H]1CCSSC[C@H](NC(=O)CC(C)C)C(=O)N[C@@H]([C@@H](C)O)C(=O)N[C@@H](Cc2c[nH]cn2)C(=O)N[C@@H](C(c2ccccc2)c2ccccc2)C(=O)N2CCC[C@H]2C(=O)N[C@@H](C)C(=O)N[C@@H]([C@@H](C)CC)C(=O)N1)C(=O)N[C@H](CCCCN)C(N)=O [compound 108] (Isovaleryl-CTH[Dip]PAI[hCys][β3hF]K([Ahx-Palmitoyl])[dK]-NH2; disulfide 1-8)
5,> 500,CCCCCCCCCCCCCCCC(=O)NCCCCCC(=O)NCCCC[C@H](NC(=O)[C@@H](NC(=O)[C@@H]1CCSSCC[C@H](N)C(=O)N[C@@H](C(C)C)C(=O)N[C@@H](CCC(=O)O)C(=O)N[C@@H]([C@@H](C)O)C(=O)N[C@@H](Cc2c[nH]cn2)C(=O)N[C@@H](C(c2ccccc2)c2ccccc2)C(=O)N2CCC[C@H]2C(=O)N1)[C@@H](C)CC)C(=O)N[C@H](CC(N)=O)Cc1ccccc1 [Compd 16] (H-[hCys]VETH[Dip]P[hCys]IK([Ahx-Palmitoyl])[β3hF]-NH2; disulfide 1-8)
6,100 to 500,CC[C@H](C)[C@H](NC(=O)[C@@H]1CSSC[C@H](NC(=O)[C@H](Cc2c[nH]cn2)NC(=O)[C@@H](NC(=O)[C@H](CCC(=O)O)NC(=O)CC(C)C)[C@@H](C)O)C(=O)N2CCC[C@H]2C(=O)N1)C(=O)N[C@H](CCCCN)C(=O)N[C@H](CC(=O)N[C@@H](CCCCNC(=O)COCCOCCNC(=O)COCCOCCNC(=O)CCCCCNC(=O)CCCCCCCCCCCCCCCCC(=O)O)C(=O)N[C@H](CCCCN)C(N)=O)Cc1ccccc1 [Compd 24] (Isovaleryl-ETHCPCI[dK][β3hF]K([AEEA-AEEA-Ahx-C18 diacid])[dK]-NH2; disulfide 4-6)
7,100 to 500,CCCCCCCCCCCCCCCC(=O)NCCCCCC(=O)NCCCC[C@H](NC(=O)C[C@H](Cc1ccccc1)NC(=O)[C@@H]1CSSC[C@H](NC(=O)[C@@H]2CCCN2C(=O)[C@@H](NC(=O)[C@H](Cc2c[nH]cn2)NC(=O)[C@@H](NC(=O)[C@H](CCC(=O)O)NC(=O)CC(C)C)[C@@H](C)O)C(c2ccccc2)c2ccccc2)C(=O)N[C@@H]([C@@H](C)CC)C(=O)N1)C(=O)N[C@H](CCCCN)C(N)=O [Compd 8] (Isovaleryl-ETH[Dip]PCIC[β3hF]K([Ahx-Palmitoyl])[dK]-NH2; disulfide 6-8)

# Same assay, conditions: ferroportin-GFP internalization/degradation, HEK293 cells; Table 6E; read-out: FPN IC50
row,DC50 [nM],Compound
1,100 to 500,CC(C)CC(=O)N[C@@H](CCC(=O)O)C(=O)N[C@H](C(=O)N[C@@H](Cc1c[nH]cn1)C(=O)N[C@H](C(=O)N1CCC[C@H]1C(=O)N[C@H]1CSSC[C@@H](C(=O)N(C)[C@@H](CCCCNC(=O)COCCOCCNC(=O)COCCOCCNC(=O)[C@H](CN)NC(=O)CCCCCCCCCCCCCCCCC(=O)O)C(=O)N(C)[C@@H](Cc2ccccc2)C(=O)N[C@H](CCCCN)C(N)=O)N(C)C1=O)C(c1ccccc1)c1ccccc1)[C@@H](C)O [compound 281] (Isovaleryl-ETH[Dip]PC[NMeC][NMeK]([AEEA-AEEA-Dap-C18 diacid])[NMeF][dK]-NH2; disulfide 6-7)
